From patent US20090221622A1, “TOPOTECAN READY TO USE SOLUTIONS” (EAGLE PHARMACEUTICALS, INC., priority 2008, published 2009)
Read-outs that look alike come from different tables or passages of the source.

Legend:
[1] = Protocol: […] […] Quantitatively, 0.01 area % is equivalent to 0.1 μg/mL of 10-HPCT.
The solution was filled into either flint glass vials or polyethylene vials. One portion of the solution was transferred into 5 ml glass vials and another portion was placed into 5 ml PE vials.

[2] = in vivo; cited from earlier work
[3] = Solubility of 10-HCPT in aqueous and acid media
[4] = aqueous media; cited from earlier work

| 10-HCPT formed by degradation ([1]; 5 weeks, 1 mg/ml, pH 3.2) [%] | 10-HCPT formed by degradation ([1]; 12 weeks, 1 mg/mL, pH 1) [%] | 10-HCPT formed by degradation ([1]; 12 weeks, 1 mg/ml, pH 2) [%] | SMILES | Dose limiting toxicity [2] | Solubility of 10-HCPT ([3]; 0.01N HCl containing 3% benzyl alcohol) | Increase of solubility of 10-HCPT ([3]; 0.01N HCl containing 3% benzyl alcohol versus about 2 ng/mL) [fold] | Solubility of 10-HCPT ([3]; 0.1 N HCl) [μg/mL] | Solubility of 10-HCPT ([3]; 0.1 N MSA) | Saturation solubility of 10 HCPT ([3]; 10% lactic acid) [µg/mL] | Solubility of 10 HCPT ([3]; 20% lactic acid solution) [µg/mL] | Concentration of 10-HCPT reached before it precipitates ([3]; formulations prepared in hydrochloric acid, pH 1.5 or less) | Solubility of 10-HCPT ([3]; starting value, without benzyl alcohol) | Solubility of 10-HCPT [4] |
| --- | --- | --- | --- | --- | --- | --- | --- | --- | --- | --- | --- | --- | --- |
| 5.64 | 0.07 | 0.6 | CC[C@@]1(O)C(=O)OCc2c1cc1n(c2=O)Cc2cc3c(CN(C)C)c(O)ccc3nc2-1 [Topotecan] | neutropenia (bone marrow suppression) and thrombocytopenia | – | – | – | – | – | – | – | – | – |
| – | – | – | CC[C@@]1(O)C(=O)OCc2c1cc1n(c2=O)Cc2cc3cc(O)ccc3nc2-1 [Example 10-HCPT, 10-hydroxycamptothecin] | – | about 10 μg/mL | ~5000 | 6 | about 6 μg/mL | 6.4 | 15 | about 4 μg/mL | about 2 ng/mL | about 2 ng/ml |
